For `S=C(NCc1cccnc1)N1CCN(c2ncnc3cc4c(cc23)OCO4)CC1` [Compound 371, 4-(6,7-Methylenedioxy-4-quinazolinyl)-N-(3-picolyl)-1-piperazinethiocarboxamide], the melting point – broadly, the temperature of the solid-liquid transition – was in the range of 167 to 168 °C. `COc1cc2ncnc(N3CCN(C(=O)Nc4cc(C)c(C)cc4[N+](=O)[O-])CC3)c2cc1OC` [Compound 237, 4-(6,7-Dimethoxy-4-quinazolinyl)-N-(4,5-dimethyl-2-nitrophenyl)-1-piperazinecarboxamide] gave a melting point of 213 to 215 °C. For `O=C(Nc1ccc(Oc2ccccc2)cc1)N1CCN(c2ccnc3ccccc23)CC1` [Compound 394, N-(4-Phenoxyphenyl)-4-(4-quinolyl)-1-piperazinecarboxamide] the value was 145 to 146 °C; for `COc1cc2ncnc(N3CCN(C(=S)Nc4ccc5c(O)nnc(O)c5c4)CC3)c2cc1OC` [Compound 99, N-(1,4-Dihydroxy-6-phthalazinyl)-4-(6,7-dimethoxy-4-quinazolinyl)-1-piperazinethiocarboxamide], 153 to 155 °C; for `COc1ccc2ncnc(N3CCN(C(=S)NCc4cccnc4)CC3)c2c1` [Compound 310, 4-(6-Methoxy-4-quinazolinyl)-N-(3-picolyl)-1-piperazinethiocarboxamide], 139 to 140 °C. As for `COc1cc2ncnc(N3CCN(C(=S)Nc4ccccn4)CC3)c2cc1OC` [Compound 262, 4-(6,7-Dimethoxy-4-quinazolinyl)-N-(2-pyridyl)-1-piperazinethiocarboxamide], the melting point lay in the range of 208 to 210 °C. For `COc1cc2ncnc(N3CCCN(C(=O)Nc4ccc([N+](=O)[O-])cc4)CC3)c2cc1OC` [Compound 112, 4-(6,7-Dimethoxy-4-quinazolinyl)-N-(4-nitrophenyl)-1-homopiperazinecarboxamide] the value was 243 to 244 °C; for `COc1ccc(NC(=S)N2CCN(c3ncnc4cc(OC)c(OC)cc34)CC2)cc1` [Compound 196, 4-(6,7-Dimethoxy-4-quinazolinyl)-N-(4-methoxyphenyl)-1-piperazinethiocarboxamide], 196 to 197 °C. In the case of `COc1cc2ncnc(N3CCN(C(=O)Nc4ccc(OC(C)C)cc4)CC3)c2cc1OC` [Compound 202, 4-(6,7-Dimethoxy-4-quinazolinyl)-N-(4-isopropoxyphenyl)-1-piperazinecarboxamide], the melting point fell in the range of 220 to 222 °C. With `CCCC(=O)c1ccc(NC(=S)N2CCN(c3ncnc4cc(OC)c(OC)cc34)CC2)cc1` [Compound 244, N-(4-Butyrylphenyl)-4-(6,7-dimethoxy-4-quinazolinyl)-1-piperazinethiocarboxamide], the melting point lay in the range of 218 to 219 °C. In turn, `Fc1cc2ncnc(N3CCN(C(=S)NCc4ccccc4)CC3)c2cc1F` [Compound 330, N-Benzyl-4-(6,7-difluoro-4-quinazolinyl)-1-piperazinethiocarboxamide] displayed a melting point of 119 to 120 °C. In turn, `COc1cc2ncnc(N3CCN(C(=S)NC(=O)c4ccc([N+](=O)[O-])cc4)CC3)c2cc1OC` [Compound 232, 4-(6,7-Dimethoxy-4-quinazolinyl)-N-(4-nitrobenzoyl)-1-piperazinethiocarboxamide] had a melting point of 103 to 105 °C.

For `COc1cc2ncnc(N3CCN(C(=O)Nc4ccc(C(=O)C(F)(F)F)cc4)CC3)c2cc1OC` [Compound 243, 4-(6,7-Dimethoxy-4-quinazolinyl)-N-(4-trifluoroacetylphenyl)-1-piperazinecarboxamide], the melting point lay in the range of 144 to 146 °C.

In the case of `COc1cc2nccc(N3CCN(C(=O)Nc4ccc(Oc5ccccc5)cc4)CC3)c2cc1OC` [Compound 407, 4-(6,7-Dimethoxy-4-quinolyl)-N-(4-phenoxyphenyl)-1-piperazinecarboxamide], the melting point was 204 to 206 °C. `CCCCc1ccc(NC(=O)N2CCN(c3ncnc4cc(OC)c(OC)cc34)CC2)cc1` [Compound 20, N-(4-Butylphenyl)-4-(6,7-dimethoxy-4-quinazolinyl)-1-piperazinecarboxamide]: the melting point was in the range of 216 to 222 °C. `CCOc1cc2ncnc(N3CCN(C(=O)Nc4ccc(Oc5ccccc5)cc4)CC3)c2cc1F` [Compound 332, 4-(7-Ethoxy-6-fluoro-4-quinazolinyl)-N-(4-phenoxyphenyl)-1-piperazinecarboxamide] registered a melting point of 197 to 198 °C.

In the case of `COc1cc2ncnc(N3CCN(C(=S)Nc4ccc(Sc5ccc([N+](=O)[O-])cc5)cc4)CC3)c2cc1OC` [Compound 70, 4-(6,7-Dimethoxy-4-quinazolinyl)-N-[4-(4-nitrophenylthio)phenyl]-1-piperazinethiocarboxamide], the melting point lay within 144 to 146 °C.

Compound `CCc1cccc(NC(=O)N2CCN(c3ncnc4cc(OC)c(OC)cc34)CC2)c1` [Compound 148, 4-(6,7-Dimethoxy-4-quinazolinyl)-N-(3-ethylphenyl)-1-piperazinecarboxamide] registered a melting point of 207 to 208 °C. The compound `CCOc1cc2ncnc(N3CCN(C(=O)Nc4ccc(Br)cc4)CC3)c2cc1OC` [Compound 336, N-(4-Bromophenyl)-4-(7-ethoxy-6-methoxy-4-quinazolinyl)-1-piperazinecarboxamide] yielded a melting point of 210 to 212 °C. For `Cl.Cl.S=C(NCc1cccnc1)N1CCN(c2ccnc3ccccc23)CC1` the value was 183 to 185 °C. The same measure for `COc1cccc2c(N3CCN(C(=O)Nc4ccc(Oc5ccccc5)cc4)CC3)ncnc12` [Compound 327, 4-(8-Methoxy-4-quinazolinyl)-N-(4-phenoxyphenyl)-1-piperazinecarboxamide]: 108 to 109 °C; for `COc1cc2ncnc(N3CCN(C(=S)NCCN4CCOCC4)CC3)c2cc1OC` [Compound 142, 4-(6,7-Dimethoxy-4-quinazolinyl)-N-(2-morpholinoethyl)-1-piperazinethiocarboxamide]: 79 to 81 °C; for `CCN(CC)c1ccc(NC(=O)N2CCN(c3ncnc4cc(OC)c(OC)cc34)CC2)cc1` [Compound 225, N-(4-Diethylaminophenyl)-4-(6,7-dimethoxy-4-quinazolinyl)-1-piperazinecarboxamide]: 221 to 223 °C. For `Cc1ccc2c(N3CCN(C(=S)NCc4cccnc4)CC3)ncnc2c1.Cl.Cl` the value was 180 to 183 °C; for `COc1cc2ncnc(N3CCN(C(=O)NCc4ccc(C(C)C)cc4)CC3)c2cc1OC` [Compound 153, 4-(6,7-Dimethoxy-4-quinazolinyl)-N-(4-isopropylbenzyl)-1-piperazinecarboxamide], 135 to 136 °C; for `O=C(Nc1ccc(Oc2ccccc2)cc1)N1CCN(c2nnc(Cc3ccccc3)c3ccccc23)CC1` [Compound 418, 4-(4-Benzyl-1-phthalazinyl)-N-(4-phenoxyphenyl)-1-piperazinecarboxamide], 100 to 101 °C. `COc1cc2ncnc(N3CCN(C(=O)Nc4ccc(Cl)cc4Cl)CC3)c2cc1OC` [Compound 53, N-(2,4-Dichlorophenyl)-4-(6,7-dimethoxy-4-quinazolinyl)-1-piperazinecarboxamide] returned a melting point of 166 to 167 °C. For the compound `S=C(NCc1ccccc1)N1CCN(c2ncnc3cc4c(cc23)OCO4)CC1` [Compound 370, N-Benzyl-4-(6,7-methylenedioxy-4-quinazolinyl)-1-piperazinethiocarboxamide], the melting point was in the range of 176 to 177 °C.
